In patent US20080274522A1, “METHOD FOR THE PRODUCTION OF 2-BUTANONE” (priority 2007, published 2008):
Read-outs that look alike come from different tables or passages of the source.

Tests used:
E. coli strain MG1655 = conditions: stationary phase
Procedure: For the stationary phase studies, E. coli strain MG1655 (ATCC # 700926) was grown overnight in LB medium (Teknova, Half Moon Bay, Calif.) with shaking at 250 rpm at 42° C., […] 28° C. […] To these were added 10 μL of the overnight cultures and the tubes were immediately placed in shaking incubators at 42° C. or 28° C. or left on ice for 30 min. […] Then, 5 μL of the undiluted treated cultures were spotted on LB agar plates. Subsequent 10-fold serial dilutions of 10^−3, 10^−4, 10^−5 and 10^−6 of the exposed cultures were done by serial pipetting of 20 μL, starting with the 10^−2 dilution cultures, into 180 μL of LB medium in the microplate, using a multi-channel pipette. Prior to each transfer, the cultures were mixed by pipetting up and down six times. Each dilution (5 μL) was spotted onto an LB plate using a multi-channel pipette and allowed to soak into the plate. The plates were inverted and incubated overnight at 37° C. […] Survival of 0% was recorded when no colonies in the spots of the undiluted or any of the serial dilutions were observed.

[1] = tested on: L. plantarum (strain PN0512); conditions: for % Survival at 37° C. / % Survival at 23° C. / % Survival at 0° C.: 1 h; for Concentration at which L. plantarum PN0512 cells were killed: one hour
Procedure: (§1) Using overnight cultures or cells from plates, 30 mL cultures of the microorganisms to be tested were started in the following culture media: • E. coli—Miller's LB medium (Teknova, Half Moon Bay, Calif.): • L. plantarum PN0512—Lactobacilli MRS Broth (BD Diagnostic Systems, Sparks, Md.). The E. coli and L. plantarum cultures were grown at 37° C. aerobically with shaking until the cultures were in log phase and the OD600 was between 0.6 and 0.8. A 50 μL aliquot of each culture was removed for a time zero sample. The remainder of the cultures was divided into six 5 mL portions and placed in six small incubation flasks or tubes. […] The flasks or tubes were incubated at a desired temperature, aerobically without shaking for 1 h. After the incubation with one of the butanols, 2 μL from each of the flasks (and in addition 2 μL of the time zero sample of the culture before exposure to one of the butanols) were pipetted into the “head” wells of a 96 well (8×12) microtiter plate, each containing 198 μL of LB medium to give a 10^−2 dilution of the culture. Subsequently, 10^−3, 10^−4, 10^−5, and 10^−6 serial dilutions of the cultures were prepared as follows. The 10^−3 dilution was prepared by pipetting 20 μL of the sample from the head well into the 180 μL LB medium in the next well using a multi-channel pipette. This procedure was repeated 3 more times on successive wells to prepare the 10^−4, 10^−5, and 10^−6 dilutions. After each liquid transfer, the solution in the well was mixed by pipetting it up and down 10 times with the multi-channel pipetor. A 5 μL aliquot of each dilution was spotted onto an LB plate using a multi-channel pipette starting with the 10^−6 dilution, then the 10^−5, and so on working from more to less dilute without a change of tips. The spots were allowed to soak into the agar by leaving the lid of the plate slightly open for 15 to 30 min in a sterile transfer hood. The plates were covered, inverted, and incubated overnight at 37° C. The following day, the number of colonies in the spots were counted from the different dilutions. The number of living cells/mL in each of the original culture solutions from which the 2 μL was withdrawn was calculated and compared to the number of cells in the control untreated culture to determine the % of the cells surviving.

E. coli (strain MG1655) = conditions: for % Survival at 30° C. / % Survival at 37° C. / % Survival at 0° C.: 1 h; for Concentration at which E. coli cells were killed: one hour
Procedure: as §1

[2] = 1-butanol 1.0 % (w/v), grown at 29° C.
[3] = 1-butanol 1.0 % (w/v), grown at 42° C.
[4] = 1-butanol 1.5 % (w/v), grown at 29° C.
[5] = 1-butanol 1.5 % (w/v), grown at 42° C.
[6] = 1-butanol 2.0 % (w/v), grown at 29° C.
[7] = 1-butanol 2.0 % (w/v), grown at 42° C.
[8] = 1-butanol 3.0 % (w/v), grown at 29° C.
[9] = 1-butanol 3.0 % (w/v), grown at 42° C.
[10] = 1-butanol 4.0 % (w/v), grown at 29° C.
[11] = 1-butanol 4.0 % (w/v), grown at 42° C.
[12] = 1-butanol […] (w/v), grown at 29° C.
[13] = 1-butanol […] (w/v), grown at 42° C.

## 1-butanol
E. coli strain MG1655; 1-butanol 1.0 % (w/v), grown at 28° C.
  % survival after 30 min exposure at 28° C.: 100%
E. coli strain MG1655; [2]
  % survival after 30 min exposure at 0° C.: 100%
  % survival after 30 min exposure at 42° C.: 100%
E. coli strain MG1655; [3]
  % survival after 30 min exposure at 0° C.: 100%
  % survival after 30 min exposure at 28° C.: 100%
  % survival after 30 min exposure at 42° C.: 100%
E. coli strain MG1655; 1-butanol 1.5 % (w/v), grown at 28° C.
  % survival after 30 min exposure at 28° C.: 100%
E. coli strain MG1655; [4]
  % survival after 30 min exposure at 0° C.: 100%
  % survival after 30 min exposure at 42° C.: 0.1%
E. coli strain MG1655; [5]
  % survival after 30 min exposure at 0° C.: 100%
  % survival after 30 min exposure at 28° C.: 100%
  % survival after 30 min exposure at 42° C.: 0.1%
E. coli strain MG1655; 1-butanol 2.0 % (w/v), grown at 28° C.
  % survival after 30 min exposure at 28° C.: 100%
E. coli strain MG1655; [6]
  % survival after 30 min exposure at 0° C.: 100%
  % survival after 30 min exposure at 42° C.: 0.1%
E. coli strain MG1655; [7]
  % survival after 30 min exposure at 0° C.: 100%
  % survival after 30 min exposure at 28° C.: 100%
  % survival after 30 min exposure at 42° C.: 0%
E. coli strain MG1655; 1-butanol 3.0 % (w/v), grown at 28° C.
  % survival after 30 min exposure at 28° C.: 100%
E. coli strain MG1655; [8]
  % survival after 30 min exposure at 0° C.: 100%
  % survival after 30 min exposure at 42° C.: 0%
E. coli strain MG1655; [9]
  % survival after 30 min exposure at 0° C.: 100%
  % survival after 30 min exposure at 28° C.: 100%
  % survival after 30 min exposure at 42° C.: 0%
E. coli strain MG1655; 1-butanol 4.0 % (w/v), grown at 28° C.
  % survival after 30 min exposure at 28° C.: 0.0003%
E. coli strain MG1655; [10]
  % survival after 30 min exposure at 0° C.: 100%
  % survival after 30 min exposure at 42° C.: 0%
E. coli strain MG1655; [11]
  % survival after 30 min exposure at 0° C.: 100%
  % survival after 30 min exposure at 28° C.: 0.0004%
  % survival after 30 min exposure at 42° C.: 0%
E. coli strain MG1655; 1-butanol 5.0 % (w/v), grown at 29° C.
  % survival after 30 min exposure at 0° C.: 1%
E. coli strain MG1655; 1-butanol 5.0 % (w/v), grown at 42° C.
  % survival after 30 min exposure at 0° C.: 1%
E. coli strain MG1655; 1-butanol 6.0 % (w/v), grown at 29° C.
  % survival after 30 min exposure at 0° C.: 0.001%
E. coli strain MG1655; 1-butanol 6.0 % (w/v), grown at 42° C.
  % survival after 30 min exposure at 0° C.: 0%
E. coli strain MG1655; 1-butanol 7.0 % (w/v), grown at 29° C.
  % survival after 30 min exposure at 0° C.: 0%
E. coli strain MG1655; 1-butanol 7.0 % (w/v), grown at 42° C.
  % survival after 30 min exposure at 0° C.: 0%
E. coli strain MG1655; [12]
  % survival after 30 min exposure at 0° C.: 100%
  % survival after 30 min exposure at 42° C.: 0%
E. coli strain MG1655; [13]
  % survival after 30 min exposure at 0° C.: 100%
  % survival after 30 min exposure at 42° C.: 0%
[1]; 0° C., one hour treatment
  Concentration with no toxic effect on L. plantarum PN0512 cells: ≤ 4.5 % v/v
[1]; 1-butanol 1 % v/v
  % Survival at 37° C.: 80%
[1]; 1-butanol 1.5 % v/v
  % Survival at 37° C.: 58%
[1]; 1-butanol 2 % v/v
  % Survival at 23° C.: 100%
  % Survival at 37° C.: 29%
[1]; 1-butanol 3 % v/v
  % Survival at 0° C.: 100%
  % Survival at 23° C.: 82%
  % Survival at 37° C.: 0%
[1]; 1-butanol 4 % v/v
  % Survival at 0° C.: 100%
  % Survival at 23° C.: 0%
[1]; 1-butanol 5 % v/v
  % Survival at 0° C.: 0%
[1]; 1-butanol 5.5 % v/v
  % Survival at 0° C.: 0%
[1]; 1-butanol […] v/v
  % Survival at 0° C.: 100%
[1]; 23° C.
  Concentration at which L. plantarum PN0512 cells were killed: 3.5 % v/v
[1]; 37° C.
  Concentration at which L. plantarum PN0512 cells were killed: 2.5 % v/v
E. coli (strain MG1655); 0° C., one hour treatment
  Concentration with no toxic effect on E. coli cells: ≤ 4.5 % v/v
E. coli (strain MG1655); 1-butanol 1 % v/v
  % Survival at 30° C.: 100%
  % Survival at 37° C.: 72%
E. coli (strain MG1655); 1-butanol 1.5 % v/v
  % Survival at 30° C.: 100%
  % Survival at 37° C.: 20%
E. coli (strain MG1655); 1-butanol 2 % v/v
  % Survival at 30° C.: 100%
  % Survival at 37° C.: 0%
E. coli (strain MG1655); 1-butanol 3 % v/v
  % Survival at 0° C.: 100%
  % Survival at 30° C.: 0%
  % Survival at 37° C.: 0%
E. coli (strain MG1655); 1-butanol 4 % v/v
  % Survival at 0° C.: 100%
E. coli (strain MG1655); 1-butanol […] v/v
  % Survival at 0° C.: 100%
  % Survival at 37° C.: 0%
E. coli (strain MG1655); 30° C.
  Concentration at which E. coli cells were killed: 3 % v/v
E. coli (strain MG1655); 37° C.
  Concentration at which E. coli cells were killed: 2 % v/v
